Patent US8334315B2, “Substituted aromatic carboxamide and urea derivatives as vanilloid receptor ligands” (Gruenenthal GmbH, priority 2009, dated 2012)

Molecular target: T1, hVR1 (Homo sapiens, UniProt Q8NER1)
T1 construct: expressed in transfected cells; host or cells: CHO K1 cells (ECACC), stably transfected
Assay: Functional test on VR1, FLIPR Ca2+ influx in transfected CHO K1 cells, capsaicin
Type: cell-based, human being
Parameters: key to Ki (human being) [nM] Cap: agonist / partial agonist / no effect: AG=agonist; pAG=partial agonist; NE=no effect
Details: for Ki: capsaicin (Cap), includes values given in brackets after pAG, read-out: Ki (human being) [nM] Cap
Source text: In the process, the Ca^2+ influx is quantified in the FLIPR assay with the aid of a Ca^2+-sensitive dye (type Fluo-4, Molecular Probes Europe BV, Leiden, the Netherlands) in a fluorescent imaging plate reader (FLIPR, Molecular Devices, Sunnyvale, USA), as described hereinafter.
II. Functional Tests Carried Out on the Vanilloid Receptor (VR1)
The agonistic or antagonistic effect of the substances to be tested on the vanilloid receptor 1 (VR1) can also be determined using the following assay. In this assay, the influx of Ca^2+ through the channel is quantified with the aid of a Ca^2+-sensitive dye (type Fluo-4, Molecular Probes Europe BV, Leiden, the Netherlands) in a fluorescent imaging plate reader (FLIPR, Molecular Devices, Sunnyvale, USA).
Chinese hamster ovary cells (CHO K1 cells, European Collection of Cell Cultures (ECACC) United Kingdom) are stably transfected with the VR1 gene. For functional testing, these cells are plated out on poly-D-lysine-coated black 96-well plates having a clear base (BD Biosciences, Heidelberg, Germany) at a density of 25,000 cells/well. The cells are incubated overnight at 37° C. and 5% CO2 in a culture medium (Ham's F12 nutrient mixture, 10% by volume of FCS (foetal calf serum), 18 μg/ml of L-proline). The next day the cells are incubated with Fluo-4 (Fluo-4 2 μM, 0.01% by volume of Pluronic F127, Molecular Probes in HBSS (Hank's buffered saline solution), Gibco Invitrogen GmbH, Karlsruhe, Germany) for 30 minutes at 37° C. Subsequently, the plates are washed three times with HBSS buffer and after further incubation for 15 minutes at RT used for Ca^2+ measurement in a FLIPR assay. The Ca^2+-dependent fluorescence is measured before and after the addition of the substances to be tested (λex wavelength=488 nm, λem=540 nm). Quantification is carried out by measuring the highest fluorescence intensity (FC, fluorescence counts) over time.
The FLIPR protocol consists of 2 substance additions. First the compounds to be tested (10 μM) are pipetted onto the cells and the Ca^2+ influx is compared with the control (capsaicin 10 μM) (% activation based on the Ca^2+ signal after the addition of 10 μM of capsaicin). After 5 minutes' incubation, 100 nM of capsaicin are applied and the Ca^2+ influx is also determined.
Desensitising agonists and antagonists led to suppression of the Ca^2+ influx. The % inhibition is calculated compared to the maximum achievable inhibition with 10 μM of capsaicin.
Starting from the percentage displacement caused by different concentrations of the compounds to be tested of general formula I, IC50 inhibitory concentrations which cause a 50-per cent displacement of capsaicin were calculated. Ki values for the test substances were obtained by conversion by means of the Cheng-Prusoff equation (Cheng, Prusoff; Biochem. Pharmacol. 22, 3099-3108, 1973).
The affinity of the compounds according to the invention for the vanilloid receptor 1 (VR1/TRPV1 receptor) was determined as described hereinbefore (pharmacological methods I and II respectively).

T1 sequence (Q8NER1 whole entry): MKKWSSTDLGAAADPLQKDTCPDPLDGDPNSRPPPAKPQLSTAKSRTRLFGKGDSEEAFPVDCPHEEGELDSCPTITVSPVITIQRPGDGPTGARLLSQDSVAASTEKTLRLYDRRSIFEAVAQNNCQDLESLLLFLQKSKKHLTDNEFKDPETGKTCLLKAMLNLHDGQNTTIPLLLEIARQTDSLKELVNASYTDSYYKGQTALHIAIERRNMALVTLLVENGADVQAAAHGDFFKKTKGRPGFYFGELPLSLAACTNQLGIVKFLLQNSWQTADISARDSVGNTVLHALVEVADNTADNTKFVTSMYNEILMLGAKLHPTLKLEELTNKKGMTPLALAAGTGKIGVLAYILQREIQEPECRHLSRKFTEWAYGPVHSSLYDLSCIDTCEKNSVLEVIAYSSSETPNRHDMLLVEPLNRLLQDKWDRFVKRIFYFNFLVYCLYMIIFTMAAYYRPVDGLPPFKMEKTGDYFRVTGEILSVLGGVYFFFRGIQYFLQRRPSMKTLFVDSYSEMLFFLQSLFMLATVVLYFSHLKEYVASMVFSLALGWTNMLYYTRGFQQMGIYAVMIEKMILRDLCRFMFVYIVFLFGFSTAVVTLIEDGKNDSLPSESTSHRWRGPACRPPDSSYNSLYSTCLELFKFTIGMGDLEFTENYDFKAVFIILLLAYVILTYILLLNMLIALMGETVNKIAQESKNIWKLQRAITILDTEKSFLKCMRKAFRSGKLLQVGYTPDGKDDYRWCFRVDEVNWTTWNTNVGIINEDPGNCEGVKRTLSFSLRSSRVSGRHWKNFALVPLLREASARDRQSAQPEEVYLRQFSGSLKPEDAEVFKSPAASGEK

SMILES	Ki (human being) [nM] Cap: agonist / partial agonist / no effect	Ki [nM]
CC(C)(C)c1cc(CNC(=O)Nc2ccc3c(c2)CCC3)n(-c2cc(Cl)cc(Cl)c2)n1 [Example 182, 1-((3-tert-butyl-1-(3,5-dichlorophenyl)-1H-pyrazol-5-yl)methyl)-3-(2,3-dihydro-1H-inden-5-yl)urea]	–	32.8
O=C(NCc1cc(C(F)(F)F)nn1-c1ccc(OC(F)(F)F)cc1)Nc1ccc2c(c1)CCC2 [Example 180, 1-(2,3-dihydro-1H-inden-5-yl)-3-((1-(4-(trifluoromethoxy)phenyl)-3-(trifluoromethyl)-1H-pyrazol-5-yl)methyl)urea]	–	41
CC(C)(C)c1cc(CNC(=O)Nc2cccc3c2OCC3)n(-c2cccc(Cl)c2)n1 [Example 185, 1-((3-tert-butyl-1-(3-chlorophenyl)-1H-pyrazol-5-yl)methyl)-3-(2,3-dihydrobenzofuran-7-yl)urea]	pAG	39.7
CC(C(=O)NCc1cc(C(F)(F)F)nn1-c1cccc(Cl)c1)c1ccc2c(c1)CCC(C)(C)O2 (stereo not shown) [Example 189, N-((1-(3-chlorophenyl)-3-(trifluoromethyl)-1H-pyrazol-5-yl)methyl)-2-(2,2-dimethylchroman-6-yl)propanamide]	–	41.2
CCCCCn1nc(C(F)(F)F)cc1CNC(=O)C(C)c1cccc2[nH]ncc12 (stereo not shown) [Example 199, 2-(1H-indazol-4-yl)-N-((1-pentyl-3-(trifluoromethyl)-1H-pyrazol-5-yl)methyl)propanamide]	–	33.5
O=C(NCc1cc(C(F)(F)F)nn1-c1cccc(Cl)c1)Nc1cccc2c(=O)[nH]ccc12 [Example 196, 1-((1-(3-chlorophenyl)-3-(trifluoromethyl)-1H-pyrazol-5-yl)methyl)-3-(1-oxo-1,2-dihydroisoquinolin-5-yl)urea]	AG	–

More lines, in order of falling Ki, values ahead:

Ki (human being) [nM] Cap: agonist / partial agonist / no effect	Ki [nM]	SMILES
–	30.4	CC(C(=O)NCc1cc(C(F)(F)F)nn1-c1cccc(Cl)c1)c1ccc2c(c1)C=CC(C)(C)O2 (stereo not shown) [Example 190, N-((1-(3-chlorophenyl)-3-(trifluoromethyl)-1H-pyrazol-5-yl)methyl)-2-(2,2-dimethyl-2H-chromen-6-yl)propanamide]
pAG	22.9	CC(C(=O)NCc1cc(C(F)(F)F)nn1-c1cccc(Cl)c1)c1ccc2nc(N)sc2c1 (stereo not shown) [Example 43, 2-(2-aminobenzo[d]thiazol-6-yl)-N-((1-(3-chlorophenyl)-3-(trifluoromethyl)-1H-pyrazol-5-yl)methyl)propanamide]
–	17.1	Cc1c(C(F)(F)F)nn(-c2cccc(Cl)c2)c1CNC(=O)C(C)c1ccc2c(c1)OCCO2 (stereo not shown) [Example 200, N-((1-(3-chlorophenyl)-4-methyl-3-(trifluoromethyl)-1H-pyrazol-5-yl)methyl)-2-(2,3-dihydrobenzo[b][1,4]dioxin-6-yl)propanamide]
–	10.8	Cc1cc2c(NC(=O)NCc3cc(C(F)(F)F)nn3-c3cccc(Cl)c3)cccc2[nH]1 [Example 192, 1-((1-(3-chlorophenyl)-3-(trifluoromethyl)-1H-pyrazol-5-yl)methyl)-3-(2-methyl-1H-indol-4-yl)urea]
–	8.4	O=C(NCc1cc(C(F)(F)F)nn1-c1cccc(Cl)c1)Nc1cc(F)cc2[nH]ncc12 [Example 194, 1-((1-(3-chlorophenyl)-3-(trifluoromethyl)-1H-pyrazol-5-yl)methyl)-3-(6-fluoro-1H-indazol-4-yl)urea]
–	6.6	CC(C(=O)NCc1cc(C(F)(F)F)nn1-c1cccc(Cl)c1)c1cccc2c1CCCC2 (stereo not shown) [Example 2, N-((1-(3-chlorophenyl)-3-(trifluoromethyl)-1H-pyrazol-5-yl)methyl)-2-(5,6,7,8-tetrahydronaphthalen-1-yl)propanamide]
pAG	2.4	CC(C)(C)c1cc(CNC(=O)Nc2cccc3c2CCC3)n(-c2cccc(Cl)c2)n1 [Example 78, 1-((3-tert-butyl-1-(3-chlorophenyl)-1H-pyrazol-5-yl)methyl)-3-(2,3-dihydro-1H-inden-4-yl)urea]
